Reference: patent US20260144769A1, “4-PHENYLBUTYRATE RESTORED GABA UPTAKE AND REDUCED SEIZURES IN SLC6A1 VARIANT-MEDIATED DISORDERS” (Vanderbilt University, priority 2022, published 2026)

Key:
GAT-1(W495X) = molecular target: T1, GAT-1(W495X) (Rattus norvegicus, UniProt P23978); assay: 3H GABA uptake, corrected iPSC astrocytes transfected with GAT-1^YFP cDNA; type: cell-based; conditions: 2 mM PBA, 24 hrs
T1 construct: The coding region of rGAT-1 was inserted into pEYFP-C1 (Clontech, Palo Alto, CA); expressed in transfected cells; host or cells: human astrocytes differentiated from CRISPR-corrected patient iPSCs
Procedure: (§1) Live images of human neural progenitor cells (NPCs), astrocytes and GABAergic inhibitory neurons differentiated from the human induced pluripotent stem cells (iPSCs) on the day of experiment. […] The DMSO treated corrected or patient cells was taken as 1. […] GABA flux was measured after 30 min transport at room temperature. The influx of GABA, expressed in pmol/μg protein/min, was averaged from duplicates for each condition and for each transfection. The average counting was DMSO treated condition taken as 1. In FIG. 5B, FIG. 5D and FIG. 5F, 966 stands for CI-966 (50 μM) and 711 stands for NNC-711 (35 μM) that was applied 30 min to the astrocytes transfected with the wildtype GAT-1^YFP before preincubation and removed during preincubation. In FIGS. 5B and D, ***p<0.001 vs. corrected DMSO treated. § § <0.01, § § § p<0.001 vs. patient DMSO treated. […] In FIGS. 5B-E, n=4-8 batches of cells. In FIG. 5F, n=4-5 different transfections). Unpaired t test was used for FIG. 5C and FIG. 5E. One-way analysis of variance followed by a Dunnett post hoc multiple comparison test was used in FIG. 5B, FIG. 5D and FIG. 5F. Values were expressed as mean±S.E.M.).
(§2) The plasmid cDNA encoding enhanced yellow fluorescent protein (EYFP)-tagged rat GAT-1 has been previously described. The coding region of rGAT-1 was inserted into pEYFP-C1 (Clontech, Palo Alto, CA). QuikChange Site-directed Mutagenesis kit was utilized to introduce the GAT-1 variants into a wildtype GAT-1 plasmid. The product was then amplified via polymerase chain reaction, transformed using DH5a competent cells, and plated. A clone was chosen and grown overnight. All the GAT-1 variants were confirmed by DNA sequencing. Both the wildtype and the variant cDNAs were prepared with Qiagen Maxiprep kit.
(§3) Astrocytes were differentiated starting from day 5 of NPC passage 1 with the astrocyte culture medium from Sciencell (catalog 1801) following the protocol as previously described. The cell culture medium was refreshed every other day and the cells were passaged at ˜70% confluency. About 1.5×10^5 cells were seeded in each 35 mm dish or each well in 6-well plate when passaging. The differentiation was continuous until the day 30 and all the astrocytes used in experiments in this study were at day 30 after differentiation.
(§4) Briefly, cells were cultured in […] dishes for 3 days before the GABA uptake experiment in DMEM with 10% fetal bovine serum and 1% penicillin/streptomycin. The cells were then transfected with equal amounts of the wildtype or the mutant GAT-1 cDNAs (1 μg) for each condition at 24 hrs or 48 hrs after plating. GABA uptake assay was carried out 48 hrs after transfection. The cells were incubated with preincubation solution for 15 min and then incubated with preincubation solution containing 1 μci/mL 3H GABA and 10 μM unlabeled GABA for 30 min at room temperature. After washing, the cells were lysed with 0.25 N NaOH for 1 hr. Glacial acetic acid was added, and lysates were then determined on a liquid scintillator with QuantaSmart. The flux of GABA (pmol/μg/min) was averaged with at least triplets for each condition at each transfection. The average counting was taken as n=1. The untransfected condition was taken as a baseline that was subtracted from both the wildtype and the mutant conditions. The pmol/μg/min in the mutant was then normalized to the wildtype from each experiment, which was arbitrarily taken as 100%. The protocols for GABA reuptake assay in cultured mouse astrocytes, neuron or iPSC derived cells were modified from the GABA uptake protocol on HEK 293T cells. GAT-1 inhibitors CL-966 and NNC-711 were applied each time to make sure the radioactive counts were specific.
(§5) The working solution was stored at 4° C.
(§6) Wildtype or the mutant GAT-1^YFP were transfected (1 μg cDNAs per 35 mm^2 dishes) in the astrocytes derived from the corrected iPSCs for 48 hrs. […]

GAT-1 D410E = molecular target: T2, GAT-1 D410E (Rattus norvegicus, UniProt P23978, D410E); assay: as above; type: cell-based; conditions: 2 mM PBA, 24 hrs
T2 construct: The coding region of rGAT-1 was inserted into pEYFP-C1 (Clontech, Palo Alto, CA); expressed in transfected cells; host or cells: HEK293T cells (A7); astrocytes from corrected human iPSCs (A27)
Procedure: as §1, §2, §3, §4, §5, §6

GAT-1 G362R = molecular target: T3, GAT-1 G362R (Rattus norvegicus, UniProt P23978, G362R); assay: as above; type: cell-based; conditions: 2 mM PBA, 24 hrs
T3 construct: The coding region of rGAT-1 was inserted into pEYFP-C1 (Clontech, Palo Alto, CA); expressed in transfected cells; host or cells: human astrocytes differentiated from CRISPR-corrected patient iPSCs
Procedure: as §1, §2, §3, §4, §5, §6

[1] = molecular target: T4, wildtype GAT-1 + GAT-1(E16X) (Rattus norvegicus, UniProt P23978); assay: 3H GABA uptake, HEK293T, mixture of wildtype and mutant cDNAs ("heterozygous"); type: cell-based; conditions: wildtype:E16X cDNAs 1:1; PBA 2 mM, 24 hrs
T4 construct: expressed in transfected cells; host or cells: HEK293T cells
Procedure: (§7) GABA uptake activity was measured by the high-throughput 3H radio-labeling GABA uptake on a liquid scintillator with QuantaSmart. […] HEK293T cells were transfected with the wildtype or the mutant GAT-1^YFP cDNAs alone for 48 hr. […] HEK293T cells were transfected with the wildtype GAT-1^YFP alone or in mixture of the wildtype or the mutant cDNAs for 48 hr. In the mixed condition, the ratio of the wildtype GAT-1 with pcDNA or the mutant cDNAs are 1:1 with the total cDNA amount of 0.5 μg. […] Both wt and the mutant were normalized to its own DMSO treated conditions. 966 stands for the wildtype treated with CI-966 (50 μM) while 711 stands for NNC-711 (35 μM). (N=4-7 different transfections. In FIG. 4A and FIG. 4B, *P<0.05, **P<0.01, ***p<0.001 vs. wt 0. In FIG. C and FIG. 4D, *P<0.05, **P<0.01, ***p<0.001 vs. its own DMSO treated. In FIG. 4C, ns stands for no significance. One-way analysis of variance (ANOVA) and Newman-Keuls test. Values were expressed as mean±S.E.M.
The plasmid cDNA encoding enhanced yellow fluorescent protein (EYFP)-tagged rat GAT-1 has been previously described. […]
Briefly, cells were cultured in […] dishes for 3 days before the GABA uptake experiment in DMEM with 10% fetal bovine serum and 1% penicillin/streptomycin. […] Glacial acetic acid was added, and lysates were then determined on a liquid scintillator with QuantaSmart. […]

[2] = system: wildtype GAT-1 + GAT-1 V125M; assay: as above; type: cell-based, rat; conditions: wildtype:V125M cDNAs 1:1; PBA 2 mM, 24 hrs
Procedure: as §7, §2
(§8) Human embryonic kidney cells were cultured as monolayers in 100 mm^2 dishes. Cells were cultured in Dulbecco's Modified Eagle's Medium supplemented with 10% FBS and 1% penicillin/streptomycin in 37° C. in 5% CO2/95% air. Cells were maintained in culture medium until appropriate confluency for experimentation.
as §4, §5

[3] = system: wildtype GAT-1 + GAT-1 L460R; assay: as above; type: cell-based, rat; conditions: wildtype:L460R cDNAs 1:1; PBA 2 mM, 24 hrs
Procedure: as §7, §2, §8, §4, §5

[4] = system: wildtype GAT-1 + GAT-1 W495X; assay: as above; type: cell-based, rat; conditions: wildtype:W495X cDNAs 1:1; PBA 2 mM, 24 hrs
Procedure: as §7, §2, §8, §4, §5

## O=C(O)CCCc1ccccc1 [PBA, 4-phenylbutyric acid]
GAT-1(W495X)
  GABA uptake normalized to its DMSO treated: 1.45±0.04
GAT-1 D410E
  GABA uptake normalized to its DMSO treated: 1.21±0.022
GAT-1 G362R
  GABA uptake normalized to its DMSO treated: 1.25±0.023
[1]
  GABA uptake normalized to its own DMSO treated condition: 1.149±0.025
[2]
  GABA uptake normalized to its own DMSO treated condition: 1.33±0.05
[3]
  GABA uptake normalized to its own DMSO treated condition: 1.214±0.037
[4]
  GABA uptake normalized to its own DMSO treated condition: 1.305±0.0296
